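Compound exposure: 48 hours, 5 concentrations, 96-well plates. GI50 = concentration required for 50% inhibition of growth.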 Active and inactive are the calls of the source. Cut-off read from the data, not from the text of the source: active = GI50 up to about 1.1 µM and inactive = higher.
How the values were obtained:
Assay in all cases: inhibition of tumour cell growth, NCI panel, 48 h
HOP-62 = tested on: HOP-62
CCRF-CEM = tested on: CCRF-CEM
NCI/ADR-RES = tested on: NCI/ADR-RES
A498 = tested on: A498
SF-268 = tested on: SF-268
PC-3 = tested on: PC-3
NCI-H522 = tested on: NCI-H522
NCI-H226 = tested on: NCI-H226
Hs-578T = tested on: Hs-578T
KM12 = tested on: KM12
MDA-MB-435 = tested on: MDA-MB-435
OVCAR-3 = tested on: OVCAR-3
MOLT-4 = tested on: MOLT-4
NCI-H23 = tested on: NCI-H23
U-251 = tested on: U-251
ACHN = tested on: ACHN
UO-31 = tested on: UO-31
TK-10 = tested on: TK-10
RPMI-8226 = tested on: RPMI-8226
HCC 2998 = tested on: HCC 2998

Measured: GI50

O=C1CC(c2ccccc2)n2c(nc3ccccc32)N1 (stereo unspecified)
inactive: HOP-62 > 100 µM | CCRF-CEM > 10 µM | NCI/ADR-RES > 100 µM | A498 45.5 µM | SF-268 > 100 µM | PC-3 > 100 µM | NCI-H522 29.9 µM | NCI-H226 > 100 µM | Hs-578T 76.9 µM | KM12 > 100 µM | MDA-MB-435 37.8 µM | OVCAR-3 54.2 µM | MOLT-4 65.8 µM | NCI-H23 64.1 µM | U-251 71.8 µM | ACHN > 100 µM | UO-31 > 100 µM | TK-10 > 100 µM | RPMI-8226 27 µM

COc1ccc(NC(=O)/C(CC2=Nc3ccc([N+](=O)[O-])cc3NC2O)=N\NC(=O)C[N+](C)(C)C)c(OC)c1 (stereo unspecified)
inactive: HOP-62 22.2 µM | CCRF-CEM 40.3 µM | NCI/ADR-RES 40.6 µM | SF-268 > 100 µM | PC-3 > 100 µM | NCI-H522 18 µM | NCI-H226 > 100 µM | Hs-578T > 100 µM | KM12 89.7 µM | MDA-MB-435 > 100 µM | HCC 2998 > 100 µM | OVCAR-3 > 100 µM | MOLT-4 > 100 µM | NCI-H23 84.3 µM | U-251 40.7 µM | ACHN 67.5 µM | UO-31 34.3 µM | TK-10 > 100 µM

O=C1N/N=C\c2ccc(cc2)OCc2cccc(n2)COc2ccc(cc2)/C=N\NC1=O
inactive: HOP-62 > 25 µM | CCRF-CEM > 25 µM | NCI/ADR-RES > 25 µM | A498 > 25 µM | SF-268 > 25 µM | PC-3 > 25 µM | NCI-H522 > 25 µM | NCI-H226 > 25 µM | Hs-578T 13.6 µM | KM12 > 25 µM | MDA-MB-435 > 25 µM | OVCAR-3 > 25 µM | MOLT-4 > 25 µM | NCI-H23 > 25 µM | U-251 > 25 µM | ACHN > 25 µM | UO-31 > 25 µM | TK-10 > 25 µM | RPMI-8226 > 25 µM

CCCCC1(NN=C2CCCCC2)C(=O)N(c2ccccc2)N(c2ccccc2)C1=O
inactive: HOP-62 > 100 µM | CCRF-CEM 21.6 µM | NCI/ADR-RES > 100 µM | SF-268 > 100 µM | PC-3 > 100 µM | NCI-H522 83 µM | Hs-578T > 100 µM | KM12 > 100 µM | MDA-MB-435 > 100 µM | HCC 2998 > 100 µM | OVCAR-3 > 100 µM | MOLT-4 26.2 µM | NCI-H23 > 100 µM | U-251 > 100 µM | ACHN > 100 µM | UO-31 > 100 µM | TK-10 > 100 µM | RPMI-8226 62.1 µM

COC(=O)[C@@H]1CC(C(CN)c2cn(C(=O)OC(C)(C)C)c3ccccc23)C(=O)N1C(=O)OC(C)(C)C (stereo partly specified)
inactive: HOP-62 86.7 µM | CCRF-CEM 14.4 µM | NCI/ADR-RES 17.2 µM | A498 20.1 µM | SF-268 27.5 µM | PC-3 18.4 µM | NCI-H522 22.5 µM | NCI-H226 29.9 µM | Hs-578T 28.2 µM | KM12 52.2 µM | MDA-MB-435 21.5 µM | OVCAR-3 24.6 µM | MOLT-4 17.1 µM | NCI-H23 35.8 µM | U-251 38.9 µM | ACHN 29.3 µM | UO-31 32.4 µM | TK-10 38.9 µM | RPMI-8226 10.6 µM

CC1=CC(=O)/C(=C/n2c(=S)[nH]c3ccc([N+](=O)[O-])cc32)C(=O)O1
inactive: HOP-62 > 100 µM | CCRF-CEM > 100 µM | NCI/ADR-RES > 100 µM | SF-268 > 100 µM | PC-3 > 100 µM | NCI-H522 > 100 µM | NCI-H226 > 100 µM | Hs-578T > 100 µM | KM12 > 100 µM | MDA-MB-435 > 100 µM | HCC 2998 > 100 µM | OVCAR-3 > 100 µM | MOLT-4 > 100 µM | NCI-H23 > 100 µM | U-251 > 100 µM | ACHN > 100 µM | UO-31 > 100 µM | TK-10 > 100 µM | RPMI-8226 > 100 µM

CC1=NNC(=O)C1C1CC(c2c[nH]c3ccccc23)=NNC1=O (stereo unspecified)
inactive: HOP-62 > 100 µM | CCRF-CEM > 100 µM | NCI/ADR-RES > 100 µM | A498 > 100 µM | SF-268 > 100 µM | PC-3 > 100 µM | NCI-H522 > 100 µM | NCI-H226 > 100 µM | Hs-578T > 100 µM | KM12 62.7 µM | MDA-MB-435 > 100 µM | OVCAR-3 > 100 µM | MOLT-4 > 100 µM | NCI-H23 > 100 µM | U-251 > 100 µM | ACHN > 100 µM | UO-31 > 100 µM | TK-10 > 100 µM | RPMI-8226 > 100 µM

O=C1C=CC(=O)[C@H]2C3C=CC(C4C3C3(Cl)C(Cl)=C(Cl)[C@]4(Cl)C3(Cl)Cl)[C@@H]12 (stereo partly specified)
inactive: HOP-62 17.1 µM | CCRF-CEM 2.95 µM | NCI/ADR-RES 5.83 µM | A498 16 µM | SF-268 5.71 µM | PC-3 4.94 µM | NCI-H522 11 µM | NCI-H226 6.47 µM | Hs-578T 10.9 µM | KM12 4.92 µM | MDA-MB-435 2.51 µM | OVCAR-3 2.95 µM | MOLT-4 3.75 µM | NCI-H23 12.6 µM | U-251 3.46 µM | ACHN 8.55 µM | UO-31 10.3 µM | TK-10 16.8 µM | RPMI-8226 3.3 µM

COc1cc(S(=O)(=O)Nc2ccc(-c3csc(N4C(=O)CSC4c4cccc(Oc5ccccc5)c4)n3)cc2)ccc1Cl (stereo unspecified)
inactive: HOP-62 74.3 µM | CCRF-CEM 23.8 µM | NCI/ADR-RES > 100 µM | A498 59 µM | SF-268 24.3 µM | PC-3 32.7 µM | NCI-H522 24.2 µM | NCI-H226 32.1 µM | Hs-578T 27.4 µM | KM12 35.2 µM | MDA-MB-435 33.5 µM | OVCAR-3 64.3 µM | MOLT-4 52 µM | NCI-H23 40.4 µM | ACHN > 100 µM | UO-31 47.5 µM | RPMI-8226 39.2 µM

CCN(CC)C(=O)Cn1c(-c2ccccc2)cc2ccccc21
inactive: HOP-62 57.5 µM | CCRF-CEM 24.3 µM | NCI/ADR-RES 23.4 µM | SF-268 29 µM | PC-3 22.9 µM | NCI-H522 28 µM | NCI-H226 42.7 µM | Hs-578T 33.5 µM | KM12 38.3 µM | MDA-MB-435 34.1 µM | HCC 2998 78.7 µM | OVCAR-3 > 100 µM | MOLT-4 14.5 µM | NCI-H23 44.4 µM | U-251 40.1 µM | ACHN 30.9 µM | UO-31 17.5 µM | TK-10 34.9 µM | RPMI-8226 > 10 µM

Reference: ChEMBL document CHEMBL1201862, “PubChem BioAssay data set” (2004)
